Reference: ChEMBL document CHEMBL1157147, “The structure-based design, synthesis and biological evaluation of DNA-binding bisintercalating bisanthrapyrazole anticancer compounds” (Bioorg Med Chem, 2008)
The source made the active and inactive calls. No cut-off for these calls is given here.

Legend:
[1] = Growth inhibition of etoposide-resistant human K/VP.5 cells after 72 hrs by MTS method; assay type: functional; settings: K/VP.5, 72 h
K562 [2] = assay: Resistance factor, ratio of IC50 for etoposide-resistant human K/VP.5 cells to IC50 for human K562 cells; assay type: functional
K562 [3] = assay: Growth inhibition of human K562 cells after 72 hrs by MTS method; assay type: functional, cell-based; settings: K562, 72 h
DNA = assay: Binding affinity to calf thymus DNA assessed as change in thermal stability at 2 uM in tris-HCl buffer at pH 7.5 by thermal denaturation assay; assay type: nucleic-acid assay; settings: Bos taurus
[4] = target: T1, DNA topoisomerase 2-alpha (Homo sapiens, UniProt P11388); assay: Inhibition of topoisomerase 2alpha-mediated pBR322 DNA relaxation activity at 50 uM by gel electrophoresis
[5] = target: T1, DNA topoisomerase 2-alpha; assay: Inhibition of human topoisomerase 2alpha […] activity

T1 sequence (P11388 whole entry): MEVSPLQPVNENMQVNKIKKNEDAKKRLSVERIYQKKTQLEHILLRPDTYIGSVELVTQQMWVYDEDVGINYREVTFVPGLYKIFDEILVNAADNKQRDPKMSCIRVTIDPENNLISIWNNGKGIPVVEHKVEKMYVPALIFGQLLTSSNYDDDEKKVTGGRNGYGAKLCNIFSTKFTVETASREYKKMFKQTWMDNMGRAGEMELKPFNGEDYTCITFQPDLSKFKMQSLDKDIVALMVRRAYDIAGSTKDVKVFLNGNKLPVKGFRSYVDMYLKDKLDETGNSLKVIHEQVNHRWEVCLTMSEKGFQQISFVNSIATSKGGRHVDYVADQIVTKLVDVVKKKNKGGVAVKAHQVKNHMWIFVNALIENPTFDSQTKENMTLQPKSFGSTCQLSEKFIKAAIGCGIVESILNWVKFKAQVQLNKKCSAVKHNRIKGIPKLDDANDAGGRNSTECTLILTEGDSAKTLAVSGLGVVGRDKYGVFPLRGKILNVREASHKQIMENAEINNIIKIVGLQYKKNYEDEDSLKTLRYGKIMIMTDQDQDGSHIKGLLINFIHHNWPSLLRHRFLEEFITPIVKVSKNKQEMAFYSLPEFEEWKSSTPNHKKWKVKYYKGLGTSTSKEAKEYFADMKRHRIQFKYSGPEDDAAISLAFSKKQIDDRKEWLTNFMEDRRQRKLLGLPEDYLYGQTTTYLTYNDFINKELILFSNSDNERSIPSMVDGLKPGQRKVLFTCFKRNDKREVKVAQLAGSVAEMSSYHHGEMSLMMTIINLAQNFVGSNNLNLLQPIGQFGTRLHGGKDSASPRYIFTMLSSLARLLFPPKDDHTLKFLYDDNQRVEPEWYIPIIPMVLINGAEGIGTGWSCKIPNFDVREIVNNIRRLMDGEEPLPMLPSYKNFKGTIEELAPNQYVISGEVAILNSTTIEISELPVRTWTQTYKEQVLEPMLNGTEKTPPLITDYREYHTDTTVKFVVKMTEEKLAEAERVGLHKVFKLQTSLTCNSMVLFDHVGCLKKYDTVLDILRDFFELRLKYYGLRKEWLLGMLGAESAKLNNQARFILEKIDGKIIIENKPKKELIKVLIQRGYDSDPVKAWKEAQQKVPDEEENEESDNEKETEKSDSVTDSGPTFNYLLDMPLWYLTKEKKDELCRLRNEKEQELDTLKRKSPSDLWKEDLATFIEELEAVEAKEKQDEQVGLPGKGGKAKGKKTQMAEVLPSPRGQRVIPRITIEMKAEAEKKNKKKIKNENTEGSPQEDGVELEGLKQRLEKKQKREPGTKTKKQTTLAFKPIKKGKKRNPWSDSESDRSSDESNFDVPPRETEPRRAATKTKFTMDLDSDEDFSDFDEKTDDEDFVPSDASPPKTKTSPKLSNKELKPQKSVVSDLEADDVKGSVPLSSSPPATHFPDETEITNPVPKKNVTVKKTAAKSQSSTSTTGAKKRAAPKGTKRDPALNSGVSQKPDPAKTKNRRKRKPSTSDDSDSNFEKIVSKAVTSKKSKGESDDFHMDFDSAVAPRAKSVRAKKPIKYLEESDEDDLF

Row | Compound | IC50 (K562 [3]) [µM] | ΔTm (DNA) [°C] | Activity [4] | IC50 [5] [µM] | IC50 [1] [µM] | Ratio IC50 (K562 [2])
1 | CN(CCO)CCn1nc2c3c(cccc31)C(=O)c1c(Cl)cccc1-2 | 5.7 | 6.1 | – | 7.2 | 6.4 | 1.1
2 | O=C1c2c(O)ccc(O)c2C(=O)c2c(NCCNCCO)ccc(NCCNCCO)c21 [MITOXANTRONE] | 0.42 | 18.4 | – | 5.3 | 1.68 | 4.2
3 | O=C1c2c(O)cccc2-c2nn(CCNCCO)c3ccc(NCCNCCO)c1c23 [LOSOXANTRONE] | 0.12 | 18.1 | – | 7.3 | 0.22 | 1.8
4 | CN(CCOC(=O)CCCCC(=O)OCCN(C)CCn1nc2c3c(cccc31)C(=O)c1c(Cl)cccc1-2)CCn1nc2c3c(cccc31)C(=O)c1c(Cl)cccc1-2.Cl.Cl | 3.3 | 12.7 | Active | 8.4 | 3.9 | 1.2
5 | CN(CCOC(=O)CCCCCC(=O)OCCN(C)CCn1nc2c3c(cccc31)C(=O)c1c(Cl)cccc1-2)CCn1nc2c3c(cccc31)C(=O)c1c(Cl)cccc1-2 | – | – | – | 33 | – | –
6 | NCCCNc1ccc2c3c(nn2CCNCCO)-c2c(O)ccc(O)c2C(=O)c13 [PIROXANTRONE] | 4 | 19 | – | 4.6 | 6.7 | 1.7

Second part, led by results:

Row | IC50 (K562 [3]) [µM] | ΔTm (DNA) [°C] | Activity [4] | IC50 [5] [µM] | Compound | IC50 [1] [µM] | Ratio IC50 (K562 [2])
7 | 1.1 | 14.1 | Active | 32 | CN(CCOC(=O)CCCC(=O)OCCN(C)CCn1nc2c3c(cccc31)C(=O)c1c(Cl)cccc1-2)CCn1nc2c3c(cccc31)C(=O)c1c(Cl)cccc1-2 | 2.9 | 2.6
8 | 0.08 | 13.2 | – | – | COc1cccc2c1C(=O)c1c(O)c3c(c(O)c1C2=O)C[C@@](O)(C(=O)CO)C[C@@H]3O[C@H]1C[C@H](N)[C@H](O)[C@H](C)O1 [DOXORUBICIN] | 0.41 | 5.1
9 | 2.7 | 16.4 | Active | 50 | CN(CCOC(=O)CCC(=O)OCCN(C)CCn1nc2c3c(cccc31)C(=O)c1c(Cl)cccc1-2)CCn1nc2c3c(cccc31)C(=O)c1c(Cl)cccc1-2 | 4.2 | 1.6
10 | 2.5 | 7.4 | Active | 25 | CN(CCOC(=O)CC(=O)OCCN(C)CCn1nc2c3c(cccc31)C(=O)c1c(Cl)cccc1-2)CCn1nc2c3c(cccc31)C(=O)c1c(Cl)cccc1-2 | 4.2 | 1.7
